Key:
Test in all cases: biochemical
Assay type in all cases: biochemical
[1] = target: T1, 382 unique human kinases (Homo sapiens, UniProt P51617); details: kinase IRAK1, compound 10 uM; for remaining activity at 10 µM: read-out: % Enzyme Activity (relative to DMSO controls)
T1 construct: purchased Reaction Biology (HotSpot contract assay)

[2] = target: T2, 382 unique human kinases (Homo sapiens, UniProt Q9HBH9); details: kinase MNK2, compound 10 uM; for remaining activity at 10 µM: read-out: % Enzyme Activity (relative to DMSO controls)
T2 construct: purchased Reaction Biology (HotSpot contract assay)

[3] = target: T3, 382 unique human kinases (Homo sapiens, UniProt Q13554); details: kinase CAMK2b, compound 10 uM; for remaining activity at 10 µM: read-out: % Enzyme Activity (relative to DMSO controls)
T3 construct: purchased Reaction Biology (HotSpot contract assay)

[4] = target: T4, 382 unique human kinases (Homo sapiens, UniProt Q8IWQ3); details: kinase BRSK2, compound 10 uM; for remaining activity at 10 µM: read-out: % Enzyme Activity (relative to DMSO controls)
T4 construct: purchased Reaction Biology (HotSpot contract assay)
T4 sequence (Q8IWQ3 1-736): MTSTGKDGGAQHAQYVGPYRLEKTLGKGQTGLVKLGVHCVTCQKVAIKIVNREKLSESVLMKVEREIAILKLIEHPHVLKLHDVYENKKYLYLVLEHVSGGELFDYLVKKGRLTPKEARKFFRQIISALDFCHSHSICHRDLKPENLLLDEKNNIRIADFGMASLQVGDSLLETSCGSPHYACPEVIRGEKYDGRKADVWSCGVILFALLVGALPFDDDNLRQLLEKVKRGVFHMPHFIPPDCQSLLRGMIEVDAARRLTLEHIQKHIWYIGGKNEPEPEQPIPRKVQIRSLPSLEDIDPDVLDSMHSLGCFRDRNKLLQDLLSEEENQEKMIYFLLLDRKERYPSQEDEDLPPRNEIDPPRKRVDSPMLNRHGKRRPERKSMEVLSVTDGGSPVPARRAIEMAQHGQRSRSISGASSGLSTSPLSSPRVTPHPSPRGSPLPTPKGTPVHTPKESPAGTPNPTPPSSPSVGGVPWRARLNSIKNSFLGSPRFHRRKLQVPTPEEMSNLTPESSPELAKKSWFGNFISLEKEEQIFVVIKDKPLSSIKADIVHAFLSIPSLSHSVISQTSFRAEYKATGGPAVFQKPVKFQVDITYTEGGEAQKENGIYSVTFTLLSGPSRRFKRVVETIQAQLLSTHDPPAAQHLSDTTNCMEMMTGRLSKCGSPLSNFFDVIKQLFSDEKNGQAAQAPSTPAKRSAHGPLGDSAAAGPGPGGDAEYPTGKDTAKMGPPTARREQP

[5] = target: T5, 382 unique human kinases (Homo sapiens, UniProt P04049); details: RAF1, compound at 10 uM, duplicate values; for remaining activity at 10 µM: read-out: % Enzyme Activity (relative to DMSO controls)
T5 construct: purchased Reaction Biology (HotSpot contract assay)

[6] = target: T6, 382 unique human kinases (Homo sapiens, UniProt Q9BXA6); details: kinase SSTK/TSSK6, compound 10 uM; for remaining activity at 10 µM: read-out: % Enzyme Activity (relative to DMSO controls)
T6 construct: purchased Reaction Biology (HotSpot contract assay)

[7] = target: T7, 382 unique human kinases (Homo sapiens, UniProt Q9BZL6); details: kinase PKD2/PRKD2, compound 10 uM; for remaining activity at 10 µM: read-out: % Enzyme Activity (relative to DMSO controls)
T7 construct: purchased Reaction Biology (HotSpot contract assay)
T7 sequence (Q9BZL6 1-878): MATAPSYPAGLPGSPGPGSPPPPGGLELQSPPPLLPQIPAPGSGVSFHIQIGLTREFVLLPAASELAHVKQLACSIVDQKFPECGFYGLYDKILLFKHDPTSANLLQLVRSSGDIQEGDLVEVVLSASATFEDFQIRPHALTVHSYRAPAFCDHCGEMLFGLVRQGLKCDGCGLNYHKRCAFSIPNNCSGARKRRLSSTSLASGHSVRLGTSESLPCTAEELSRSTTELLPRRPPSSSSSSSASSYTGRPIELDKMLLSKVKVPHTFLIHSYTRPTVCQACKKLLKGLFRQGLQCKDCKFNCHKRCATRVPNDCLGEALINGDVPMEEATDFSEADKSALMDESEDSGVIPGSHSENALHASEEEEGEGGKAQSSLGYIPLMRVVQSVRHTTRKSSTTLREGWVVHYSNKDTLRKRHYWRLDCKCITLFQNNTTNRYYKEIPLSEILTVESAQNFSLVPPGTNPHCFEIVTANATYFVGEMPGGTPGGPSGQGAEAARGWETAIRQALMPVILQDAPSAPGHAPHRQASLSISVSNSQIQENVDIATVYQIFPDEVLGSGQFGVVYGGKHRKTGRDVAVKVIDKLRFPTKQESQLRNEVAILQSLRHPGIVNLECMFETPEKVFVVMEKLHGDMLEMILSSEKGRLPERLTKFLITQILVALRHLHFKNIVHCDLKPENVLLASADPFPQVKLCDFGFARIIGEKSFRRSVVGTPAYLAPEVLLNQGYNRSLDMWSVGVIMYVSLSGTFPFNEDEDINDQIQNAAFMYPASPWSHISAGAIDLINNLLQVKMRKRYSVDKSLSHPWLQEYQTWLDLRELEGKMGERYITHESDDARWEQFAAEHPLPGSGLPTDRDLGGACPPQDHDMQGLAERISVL

[8] = target: T8, 382 unique human kinases (Homo sapiens, UniProt O94921); details: CDK14/cyclin Y (PFTK1), 10 uM; for remaining activity at 10 µM: read-out: % Enzyme Activity (relative to DMSO controls)
T8 construct: purchased Reaction Biology (HotSpot contract assay)

[9] = target: T9, 382 unique human kinases (Homo sapiens, UniProt P42685); details: FRK/PTK5, [ATP] 30 µM, compound 10 uM; for remaining activity at 10 µM: read-out: % Enzyme Activity (relative to DMSO controls)
T9 construct: purchased Reaction Biology (HotSpot contract assay)

[10] = target: T10, 382 unique human kinases (Homo sapiens, UniProt Q9UIK4); details: DAPK2, 10 uM; for remaining activity at 10 µM: read-out: % Enzyme Activity (relative to DMSO controls)
T10 construct: purchased Reaction Biology (HotSpot contract assay)

[11] = target: T11, 382 unique human kinases (Homo sapiens, UniProt P07949, M918T); details: RET (M918T), 10 uM; for remaining activity at 10 µM: read-out: % Enzyme Activity (relative to DMSO controls)
T11 construct: purchased Reaction Biology (HotSpot contract assay)

[12] = target: T12, 382 unique human kinases (Homo sapiens, UniProt Q86YV6); details: MYLK4, [ATP] 50 µM, compound 10 uM; for remaining activity at 10 µM: read-out: % Enzyme Activity (relative to DMSO controls)
T12 construct: purchased Reaction Biology (HotSpot contract assay)
T12 sequence (Q86YV6 1-388): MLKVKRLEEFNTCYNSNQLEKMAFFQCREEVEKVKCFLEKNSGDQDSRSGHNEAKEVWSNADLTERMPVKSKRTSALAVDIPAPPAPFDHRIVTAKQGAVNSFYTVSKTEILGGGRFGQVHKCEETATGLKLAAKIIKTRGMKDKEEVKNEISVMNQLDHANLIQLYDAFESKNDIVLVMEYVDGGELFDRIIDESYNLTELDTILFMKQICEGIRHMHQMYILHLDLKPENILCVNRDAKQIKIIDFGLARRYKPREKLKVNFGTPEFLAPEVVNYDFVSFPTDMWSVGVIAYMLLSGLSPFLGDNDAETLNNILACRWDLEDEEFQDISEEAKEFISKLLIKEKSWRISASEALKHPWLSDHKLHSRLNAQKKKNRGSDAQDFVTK

T10 sequence (Q9UIK4 whole entry): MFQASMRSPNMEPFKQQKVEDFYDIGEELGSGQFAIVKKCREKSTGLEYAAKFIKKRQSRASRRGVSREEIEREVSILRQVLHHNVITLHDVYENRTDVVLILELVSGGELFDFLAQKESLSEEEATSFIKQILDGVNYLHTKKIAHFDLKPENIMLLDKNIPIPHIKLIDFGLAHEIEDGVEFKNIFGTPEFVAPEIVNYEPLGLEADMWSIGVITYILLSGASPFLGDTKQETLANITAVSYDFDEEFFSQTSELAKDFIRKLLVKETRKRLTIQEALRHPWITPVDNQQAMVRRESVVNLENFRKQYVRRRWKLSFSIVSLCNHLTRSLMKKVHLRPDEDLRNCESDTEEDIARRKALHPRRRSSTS
T6 sequence (Q9BXA6 whole entry): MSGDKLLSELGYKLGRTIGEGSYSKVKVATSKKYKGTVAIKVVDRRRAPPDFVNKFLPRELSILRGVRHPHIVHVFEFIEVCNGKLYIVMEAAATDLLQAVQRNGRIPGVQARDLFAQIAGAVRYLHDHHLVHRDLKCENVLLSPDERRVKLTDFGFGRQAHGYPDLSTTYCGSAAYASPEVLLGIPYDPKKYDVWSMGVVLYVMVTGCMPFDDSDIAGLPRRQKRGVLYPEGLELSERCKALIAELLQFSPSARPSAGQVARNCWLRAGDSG
T1 sequence (P51617 whole entry): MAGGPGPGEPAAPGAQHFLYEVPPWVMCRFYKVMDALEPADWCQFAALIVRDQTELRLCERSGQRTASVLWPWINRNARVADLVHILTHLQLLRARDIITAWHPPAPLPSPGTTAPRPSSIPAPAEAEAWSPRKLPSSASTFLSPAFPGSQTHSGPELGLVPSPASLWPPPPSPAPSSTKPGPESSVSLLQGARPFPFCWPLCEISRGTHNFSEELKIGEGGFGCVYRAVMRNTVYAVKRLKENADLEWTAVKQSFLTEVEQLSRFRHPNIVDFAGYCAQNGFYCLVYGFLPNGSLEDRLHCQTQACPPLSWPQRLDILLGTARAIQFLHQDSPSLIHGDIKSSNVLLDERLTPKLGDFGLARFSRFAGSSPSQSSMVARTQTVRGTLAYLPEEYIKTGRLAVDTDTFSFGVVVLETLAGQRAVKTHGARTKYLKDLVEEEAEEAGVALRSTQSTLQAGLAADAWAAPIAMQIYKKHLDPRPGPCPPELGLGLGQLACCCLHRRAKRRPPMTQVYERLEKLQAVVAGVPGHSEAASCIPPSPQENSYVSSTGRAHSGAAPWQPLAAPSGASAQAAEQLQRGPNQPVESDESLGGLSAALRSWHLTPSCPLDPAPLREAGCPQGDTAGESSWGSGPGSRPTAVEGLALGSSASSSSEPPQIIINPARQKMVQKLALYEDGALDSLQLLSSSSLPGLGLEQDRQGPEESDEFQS
T5 sequence (P04049 whole entry): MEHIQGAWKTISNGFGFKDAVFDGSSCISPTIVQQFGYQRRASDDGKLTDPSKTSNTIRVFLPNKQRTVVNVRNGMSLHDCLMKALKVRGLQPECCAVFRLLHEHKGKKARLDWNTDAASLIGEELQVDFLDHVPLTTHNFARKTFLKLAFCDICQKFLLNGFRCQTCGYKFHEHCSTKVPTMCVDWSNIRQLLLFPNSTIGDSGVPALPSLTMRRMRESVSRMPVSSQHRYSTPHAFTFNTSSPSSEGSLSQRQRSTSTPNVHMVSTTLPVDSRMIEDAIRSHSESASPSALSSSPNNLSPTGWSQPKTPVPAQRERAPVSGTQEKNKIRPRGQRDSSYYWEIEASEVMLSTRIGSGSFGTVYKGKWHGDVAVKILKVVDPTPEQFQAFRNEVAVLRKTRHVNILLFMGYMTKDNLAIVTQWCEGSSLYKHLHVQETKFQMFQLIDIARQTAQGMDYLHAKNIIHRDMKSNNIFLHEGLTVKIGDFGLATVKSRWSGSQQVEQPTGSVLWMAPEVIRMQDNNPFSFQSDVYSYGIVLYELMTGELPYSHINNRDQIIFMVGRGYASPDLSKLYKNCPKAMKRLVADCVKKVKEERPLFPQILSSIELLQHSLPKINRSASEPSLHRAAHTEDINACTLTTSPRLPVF
T9 sequence (P42685 whole entry): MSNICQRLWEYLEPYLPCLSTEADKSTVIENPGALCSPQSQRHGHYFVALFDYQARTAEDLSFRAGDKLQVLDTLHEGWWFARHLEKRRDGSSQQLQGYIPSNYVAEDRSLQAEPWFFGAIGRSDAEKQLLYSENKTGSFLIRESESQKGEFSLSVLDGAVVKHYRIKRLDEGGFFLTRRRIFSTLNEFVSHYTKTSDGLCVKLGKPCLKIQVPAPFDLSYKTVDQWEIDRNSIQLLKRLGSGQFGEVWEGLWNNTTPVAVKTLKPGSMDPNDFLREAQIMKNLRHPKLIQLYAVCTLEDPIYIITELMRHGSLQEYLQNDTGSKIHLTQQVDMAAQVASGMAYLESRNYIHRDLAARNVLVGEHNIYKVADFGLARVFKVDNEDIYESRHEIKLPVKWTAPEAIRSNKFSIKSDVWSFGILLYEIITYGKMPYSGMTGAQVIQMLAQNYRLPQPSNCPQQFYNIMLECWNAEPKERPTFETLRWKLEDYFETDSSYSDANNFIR
T11 sequence (P07949 29-1114 M918T): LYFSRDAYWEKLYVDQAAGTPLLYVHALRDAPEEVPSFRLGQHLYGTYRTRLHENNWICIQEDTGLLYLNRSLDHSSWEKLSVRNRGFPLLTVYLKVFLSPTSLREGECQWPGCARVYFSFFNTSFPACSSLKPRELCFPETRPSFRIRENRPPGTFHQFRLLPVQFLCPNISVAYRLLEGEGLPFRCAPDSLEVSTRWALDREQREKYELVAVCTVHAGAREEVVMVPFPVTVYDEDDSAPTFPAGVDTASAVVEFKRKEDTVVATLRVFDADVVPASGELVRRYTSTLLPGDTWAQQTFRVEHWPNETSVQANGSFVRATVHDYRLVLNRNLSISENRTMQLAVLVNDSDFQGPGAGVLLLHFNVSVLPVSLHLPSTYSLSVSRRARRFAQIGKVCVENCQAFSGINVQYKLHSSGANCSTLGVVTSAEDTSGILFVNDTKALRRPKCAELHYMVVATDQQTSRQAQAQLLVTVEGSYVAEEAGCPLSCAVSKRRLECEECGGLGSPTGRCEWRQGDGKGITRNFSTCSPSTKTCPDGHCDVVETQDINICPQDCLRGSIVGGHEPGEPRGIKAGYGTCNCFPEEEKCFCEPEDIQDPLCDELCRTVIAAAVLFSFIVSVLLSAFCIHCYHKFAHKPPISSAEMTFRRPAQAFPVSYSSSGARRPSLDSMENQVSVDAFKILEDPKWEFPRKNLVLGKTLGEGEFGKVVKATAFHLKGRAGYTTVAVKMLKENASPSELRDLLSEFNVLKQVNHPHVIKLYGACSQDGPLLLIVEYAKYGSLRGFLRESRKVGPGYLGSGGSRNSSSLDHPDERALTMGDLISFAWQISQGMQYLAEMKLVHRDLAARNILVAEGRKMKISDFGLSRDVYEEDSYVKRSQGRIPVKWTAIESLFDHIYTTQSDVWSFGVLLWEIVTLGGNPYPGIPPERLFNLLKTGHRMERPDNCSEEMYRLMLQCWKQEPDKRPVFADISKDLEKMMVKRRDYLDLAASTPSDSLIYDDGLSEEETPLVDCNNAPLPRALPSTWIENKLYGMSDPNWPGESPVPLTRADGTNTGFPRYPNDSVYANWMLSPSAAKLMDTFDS
T8 sequence (O94921 whole entry): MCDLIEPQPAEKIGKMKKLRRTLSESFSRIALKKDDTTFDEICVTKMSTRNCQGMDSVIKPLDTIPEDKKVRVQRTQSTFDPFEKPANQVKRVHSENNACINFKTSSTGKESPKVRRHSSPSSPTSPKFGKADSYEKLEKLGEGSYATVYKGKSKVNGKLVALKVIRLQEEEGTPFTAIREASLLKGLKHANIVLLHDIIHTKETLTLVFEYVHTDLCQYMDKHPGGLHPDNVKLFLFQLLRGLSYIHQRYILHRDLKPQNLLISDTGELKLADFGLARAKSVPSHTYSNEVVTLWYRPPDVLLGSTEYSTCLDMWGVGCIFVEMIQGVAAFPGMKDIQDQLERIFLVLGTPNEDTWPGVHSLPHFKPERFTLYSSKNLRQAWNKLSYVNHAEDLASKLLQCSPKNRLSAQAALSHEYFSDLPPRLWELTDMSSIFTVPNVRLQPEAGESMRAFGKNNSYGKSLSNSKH
T2 sequence (Q9HBH9 whole entry): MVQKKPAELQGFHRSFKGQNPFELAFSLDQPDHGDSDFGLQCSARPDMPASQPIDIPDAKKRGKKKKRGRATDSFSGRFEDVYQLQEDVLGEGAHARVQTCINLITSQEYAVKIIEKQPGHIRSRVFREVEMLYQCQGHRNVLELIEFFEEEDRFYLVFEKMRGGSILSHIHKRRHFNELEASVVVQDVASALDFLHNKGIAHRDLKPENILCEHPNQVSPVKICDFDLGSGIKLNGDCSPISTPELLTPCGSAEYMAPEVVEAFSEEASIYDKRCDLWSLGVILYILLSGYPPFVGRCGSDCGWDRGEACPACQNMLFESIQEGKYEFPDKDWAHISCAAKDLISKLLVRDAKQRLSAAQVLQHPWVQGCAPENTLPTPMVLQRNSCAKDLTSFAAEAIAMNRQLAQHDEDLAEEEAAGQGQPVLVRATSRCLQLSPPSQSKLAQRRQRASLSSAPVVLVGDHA

**Q.** `CC(C)c1cc(-c2n[nH]c(=O)n2-c2ccc3c(ccn3C)c2)c(O)cc1O` [Ganetespib (STA9090)] was tested. Which remaining activity at 10 µM [1] did it give?
**A.** 102%

**Q.** What about the remaining activity at 10 µM [2] of the same compound?
**A.** 92%

**Q.** What about the remaining activity at 10 µM [3] of the same compound?
**A.** 79.1%

**Q.** And the remaining activity at 10 µM [4]?
**A.** 82.8%

**Q.** What about the remaining activity at 10 µM [5] of the same compound?
**A.** 106%

**Q.** And the remaining activity at 10 µM [6]?
**A.** 86.5%

**Q.** And the remaining activity at 10 µM [7]?
**A.** 87%

**Q.** Which remaining activity at 10 µM [8] does the source give for `CC(C)c1cc(-c2n[nH]c(=O)n2-c2ccc3c(ccn3C)c2)c(O)cc1O` [Ganetespib] here?
**A.** 93.1%

**Q.** And the remaining activity at 10 µM [9]?
**A.** 18.1%

**Q.** What about the remaining activity at 10 µM [10] of the same compound?
**A.** 96.6%

**Q.** And the remaining activity at 10 µM [11]?
**A.** 97.7%

**Q.** What about the remaining activity at 10 µM [12] of the same compound?
**A.** 60.1%

**Q.** Which “% Enzyme Activity (relative to DMSO controls)” value [1] does the source give for `CCNC(=O)c1noc(-c2cc(C(C)C)c(O)cc2O)c1-c1ccc(CN2CCOCC2)cc1` [Luminespib (AUY-922)] here?
**A.** 104.17%

**Q.** And the remaining activity at 10 µM [1]?
**A.** 105%

**Q.** What about the “% Enzyme Activity (relative to DMSO controls)” value [2] of the same compound?
**A.** 103.84%

**Q.** What about the remaining activity at 10 µM [2] of the same compound?
**A.** 105%

**Q.** And the “% Enzyme Activity (relative to DMSO controls)” value [3]?
**A.** 99.03%

**Q.** What about the remaining activity at 10 µM [3] of the same compound?
**A.** 99.6%

**Q.** And the “% Enzyme Activity (relative to DMSO controls)” value [4]?
**A.** 83.62%

**Q.** What about the remaining activity at 10 µM [4] of the same compound?
**A.** 83.9%

**Q.** And the “% Enzyme Activity (relative to DMSO controls)” value [5]?
**A.** 103.94%

**Q.** What about the remaining activity at 10 µM [5] of the same compound?
**A.** 105%

**Q.** And the “% Enzyme Activity (relative to DMSO controls)” value [6]?
**A.** 122.22%

**Q.** What about the remaining activity at 10 µM [6] of the same compound?
**A.** 122%

**Q.** What about the “% Enzyme Activity (relative to DMSO controls)” value [7] of the same compound?
**A.** 97.40%

**Q.** And the remaining activity at 10 µM [7]?
**A.** 99.3%

**Q.** Which results are given for `CCNC(=O)c1noc(-c2cc(C(C)C)c(O)cc2O)c1-c1ccc(CN2CCOCC2)cc1` [Luminespib]?
**A.** % Enzyme Activity (relative to DMSO controls) [8]: 102.69%; remaining activity at 10 µM [8]: 103%; % Enzyme Activity (relative to DMSO controls) [9]: 63.67%; remaining activity at 10 µM [9]: 64.5%; % Enzyme Activity (relative to DMSO controls) [10]: 94.93%; remaining activity at 10 µM [10]: 95.4%; % Enzyme Activity (relative to DMSO controls) [11]: 96.83%; remaining activity at 10 µM [11]: 97.5%; % Enzyme Activity (relative to DMSO controls) [12]: 95.56%; remaining activity at 10 µM [12]: 96.7%

— paper PMC8550792, “Evolution of kinase polypharmacology across HSP90 drug discovery” (Cell Chemical Biology, 2021)
